# US10941379B2, “Microbial system for biosynthesis of natural and engineered products coupled to in situ extraction in supercritical CO2” (Massachusetts Institute of Technology, priority 2016, dated 2021)
# Peptide text beside a SMILES is read from it.
# Tested on: B. megaterium SR7
# Assay: Biolog GenIII sole carbon source growth
# Format: cell-based, Bacillus megaterium
# Settings: for Growth in carbon source Biolog plate, +Metals: trace metals-amended plate; for Growth in carbon source Biolog plate, +Metals / Growth in carbon source Biolog plate, I / Growth in carbon source Biolog plate, II: Table 11; for Growth in carbon source Biolog plate, I: unamended plate trial I; for Growth in carbon source Biolog plate, II: unamended plate trial II
# Description: Plates were incubated at 37° C. on a plate shaker at 200 rpm and assayed for growth using NADH-dependent colorimetric changes measured by OD490 on a microplate reader (BioTek Synergy 2; BioTek; Winooski, Vt.).
SMILES,"Growth in carbon source Biolog plate, +Metals","Growth in carbon source Biolog plate, I","Growth in carbon source Biolog plate, II","Growth on Biolog sole carbon source, SR7 (no metals added, Table 10)"
CC(=O)CC(=O)O [Acetoacetic Acid],−,−,+,
O=C(O)CC(O)(CC(=O)O)C(=O)O [Citric Acid],+++,+++,,
OC[C@@H](O)C(O)[C@H](O)CO [D-Arabitol],+,+,+,
N[C@H](CC(=O)O)C(=O)O [D-Aspartic Acid],−,−,−,
OC[C@H]1O[C@@H](O[C@H]2[C@H](O)[C@@H](O)[C@H](O)O[C@@H]2CO)[C@H](O)[C@@H](O)[C@@H]1O [D-Cellobiose],+,+,+,
O=P(O)(O)OC[C@H]1OC(O)(CO)[C@@H](O)[C@@H]1O (stereo partly drawn) [D-Fructose-6-PO4],−,+,−,
O=C(CO)[C@@H](O)[C@H](O)[C@H](O)CO [D-Fructose],+,+,+,
C[C@@H](O)[C@H](O)[C@H](O)[C@@H](O)C=O [D-Fucose],−,−,−,
O=C[C@H](O)[C@@H](O)[C@@H](O)[C@H](O)CO [D-Galactose],+,+,+,
O=C[C@H](O)[C@@H](O)[C@@H](O)[C@H](O)C(=O)O [D-Galacturonic Acid],−,−,+,
O=P(O)(O)OC[C@H]1OC(O)[C@H](O)[C@@H](O)[C@@H]1O (stereo partly drawn) [D-Glucose-6-PO4],−,−,−,
O=C[C@H](O)[C@@H](O)[C@H](O)[C@H](O)C(=O)O [D-Glucuronic Acid],−,+,+,
COC(=O)[C@@H](C)O [D-Lactic Acid Methyl Ester],+,+,+,
O=C(O)C[C@@H](O)C(=O)O [D-Malic Acid],−,−,−,
OC[C@H]1O[C@H](O[C@H]2[C@H](O)[C@@H](O)[C@H](O)O[C@@H]2CO)[C@H](O)[C@@H](O)[C@@H]1O [D-Maltose],+,−,+,−
O=C[C@@H](O)[C@@H](O)[C@H](O)[C@H](O)CO [D-Mannose],−,−,−,
OC[C@H]1O[C@H](OCC2O[C@@H](O)[C@H](O)[C@@H](O)[C@@H]2O)[C@H](O)[C@@H](O)[C@H]1O (stereo partly drawn) [D-Melibiose],+,+,+,
OC[C@H]1O[C@H](OC[C@H]2O[C@H](O[C@]3(CO)O[C@H](CO)[C@@H](O)[C@@H]3O)[C@H](O)[C@@H](O)[C@@H]2O)[C@H](O)[C@@H](O)[C@H]1O [D-Raffinose],+++,−,+,
OC[C@@H](O)[C@@H](O)[C@H](O)[C@@H](O)CO [D-Sorbitol],+,+,−,
OC[C@H]1O[C@H](O[C@H]2O[C@H](CO)[C@@H](O)[C@H](O)[C@H]2O)[C@H](O)[C@@H](O)[C@@H]1O [D-Trehalose],+,−,+,
O=CO [Formic Acid],−,+,−,
NC(=O)[C@@H](O)[C@@H](O)[C@H](O)[C@@H](O)C=O [Glucuronamide],−,−,−,
OCC(O)CO [Glycerol],+,+,+,
NCC(=O)N1CCC[C@H]1C(=O)O [Glycyl-L-Proline] (H-Gly-Pro-OH),−,−,−,
OC[C@H]1O[C@@H](n2cnc3c(O)ncnc32)[C@H](O)[C@@H]1O [Inosine],+,−,+,
N=C(N)NCCC[C@H](N)C(=O)O [L-Arginine],+++,+,+,
C[C@H](O)[C@@H](O)[C@@H](O)[C@H](O)C=O [L-Fucose],−,−,−,
O=C1O[C@H]([C@@H](O)CO)[C@@H](O)[C@@H]1O [L-Galactonic Acid Lactone],−,−,+,
O=C1CC[C@@H](C(=O)O)N1 [L-Pyroglutamic Acid],+++,+,+,
